Reference: patent publication US8933229B2, “8-azabicyclo[3.2.1]octane-8-carboxamide derivative” (Sumitomo Dainippon Pharma Co., Ltd., priority 2009, dated 2015)

Legend:
[1] = target: T1, cortisone reductase of mouse adipose cell (11βHSD1) (Mus musculus, UniProt P50172); experiment: Inhibitory activity assay against cortisone reductase of mouse primary adipocytes; format: cell-based; conditions: differentiated ICR mouse visceral fat primary adipocytes, 100 nM [1,2-3H] cortisone, 37° C.
T1 construct: The medium of adipocytes which were differentiated and induced as mentioned above were replaced; endogenous in cells; host or cells: primary cells from visceral fat tissue of ICR male mice (Japan SLC), differentiated into adipocytes in culture
T1 sequence (P50172 whole entry): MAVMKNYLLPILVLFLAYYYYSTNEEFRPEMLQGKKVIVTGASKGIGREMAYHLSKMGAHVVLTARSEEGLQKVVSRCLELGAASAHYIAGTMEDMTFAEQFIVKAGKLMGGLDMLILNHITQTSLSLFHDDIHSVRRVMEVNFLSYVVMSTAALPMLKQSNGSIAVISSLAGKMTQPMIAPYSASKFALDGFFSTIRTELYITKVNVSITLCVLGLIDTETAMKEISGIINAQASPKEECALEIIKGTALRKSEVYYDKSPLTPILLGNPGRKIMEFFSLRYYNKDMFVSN
Description: The adipose tissues adhered to the mesenterium and around the testicle of ten ICR male mice (9 to 11 weeks old, Japn SLC Inc.) (hereinafter, referred to as visceral fat tissue) were soaked in about 100 mL of a phospate buffer (0.20 g/L KCl, 0.20 g/L KH2PO4, 8.00 g/L NaCl, 2.16 g/L Na2HPO4.7H2O, 100 unit/ml penicillin (GIBCO), 100 μg/ml streptomycin (GIBCO), 250 ng/ml amphotericin (GIBCO)) and washed at room temperature.
The excised visceral fat tissues was cut finely in about 5×5 mm with scissors in Dulbecco's modified Eagle medium (about 50 ml, containing 4.5 g/L D-glucose and 584 mg/L L-glutamine, GIBCO) to which collagenase (Type II, Sigma), penicillin (GIBCO), streptomycin (GIBCO) and amphotericin (GIBCO) were added in an amount so that the final concentrations thereof are adjusted to 1 mg/ml, 100 unit/ml, 100 μg/ml and 250 ng/ml, respectively. Then, the mixture was shaken at 37° C. for 30 minutes (about 170 rpm), filtered through nylon mesh (80S [the pore size: 250 μm], SANSHIN INDUSTRIAL CO., LTD.), and the filtrate (cell suspension) was collected. This filtrate was centrifuged at 1800 rpm at room temperature for 5 minutes, and then, the liquid layer was removed stilly by decantation to give a precipate. This precipiate was suspended in Dulbecco's modified Eagle medium (30 ml, containing 4.5 g/L D-glucose and 584 mg/L L-glutamine, GIBCO; hereinafter, occasionally referred to as FBS-containing medium), to which fetal bovine serum (hereinafter referred to as FBS, GIBCO), ascorbic acid (Wako Pure Chemical Industries, Ltd.), penicillin (GIBCO), streptomycin (GIBCO) and amphotericin (GIBCO) are added thereto in an amount so that the final concentrations thereof were adjusted to 10%, 200 μM, 100 units/ml, 100 μg/ml and 250 ng/ml, respectively, and then the suspension was filtered through a nylon mesh (420S [pore size: 25 μm], SANSHIN INDUSTRIAL CO., LTD.). The filtrate was collected, and centrifuged at 1800 rpm at room temperature for 5 minutes. The liquid layer was removed stilly by decantation, and the precipitate was suspended again in the FBS-containing medium (30 ml). This suspension was treated by the same procedure (centrifugation, removal of liquid layer, suspension in FBS-containing medium) two times more, and the suspension (90 ml) was prepared. This suspension was put into cell culture flasks (T150, for adhered cell culture, Iwaki Glass) in a each volume of 30 ml, and incubated at 37° C. in the presence of 5% CO2. At 5 to 6 hours after starting incubation, the medium was removed, and the wall of the flask was washed with the above-mentioned phosphate buffer (15 ml). The washing liquid was removed, and the washing procedure was repeated again, and the phosphate buffer was removed. To the flask was added FBS-containing medium (30 ml), and the mixture was incubated at 37° C. under the presence of 5% CO2. On Day 1 or Day 2 after the culture started, the medium was removed, and the wall of the flask was washed with the phosphate buffer (15 ml) once. To the flask was added a trypsin-ethylenediamine tetraacetate (hereinafter, referred to as trypsin-EDTA) solution (0.05% trypsin, 0.53 mM EDTA 4Na, GIBCO) in such a volume that the cells are duly soaked, and the mixture was allowed to stand at 37° C. for 5 minutes. To this mixture was added the FBS-containing medium in about 10-times volume of that of the trypsin-EDTA solution, and then the cell suspension was obtained.
The cells in the cell suspension were counted with a counting chamber, and the cell suspension was diluted with the FBS-containing medium so that the concentration of the cell was adjusted to 1.4×10^5 cells/ml. Thus obtained cell dilution was put into a 48-well plate (for adherent cell culture, Iwaki Glass) in an amount of 300 μl per well, and the plate was incubated at 37° C. in the presence of 5% CO2 for 1 to 2 days. […]

[2] = target: T2, cortisone reductase of human adipose cell (11βHSD1) (Homo sapiens, UniProt P28845); experiment: Inhibitory activity assay against cortisone reductase activity of cultured human adipocytes; format: cell-based; conditions: differentiated normal human preadipocytes (HPrAD-vis), 100 nM [1,2-3H] cortisone, 37° C.
T2 construct: host or cells: normal human visceral preadipocytes (HPrAD-vis) differentiated into adipocytes
T2 sequence (P28845 whole entry): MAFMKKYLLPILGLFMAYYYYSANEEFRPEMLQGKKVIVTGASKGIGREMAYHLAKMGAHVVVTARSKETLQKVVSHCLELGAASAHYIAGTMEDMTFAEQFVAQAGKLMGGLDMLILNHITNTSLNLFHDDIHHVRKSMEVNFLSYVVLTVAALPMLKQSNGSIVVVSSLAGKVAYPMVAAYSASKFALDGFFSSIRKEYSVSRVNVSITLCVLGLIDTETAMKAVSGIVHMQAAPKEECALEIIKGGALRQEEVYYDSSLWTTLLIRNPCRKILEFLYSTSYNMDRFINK
Description: Normal human preadipocytes (HPrAD-vis, manufactured by Cambrex corporation) were inoculated onto a 48-well cell culture plate, and the differentiation induction was carried out according to Protocol attached to the kit. The medium for the cells on the 9-11 days of the differentiation was changed to D-MEM medium (0.2 ml; manufactured by GIBCO) containing 100 nM [1,2-^3H] cortisone (1 μCi/well, manufactured by Muromachi Yakuhin), 0.5% DMSO, a test compound (for test compound treated group, or DMSO only for the no-test compound treated group). The plate was incubated at 37° C. for 3 hours, and then the whole medium was collected. As a background group, the medium without cell was used. The medium was mixed with ethyl acetate (0.1 ml) in an Eppendorf tube. This mixture was voltexed, and then further centrifuged at 5,000 rpm for one minute at room temperature to separate the ethyl acetate layer (the upper layer). The ethyl acetate layer (10 μl) was spotted on an aluminium plate for thin layer chromatography (silica gel 60 angstrom, Merck & Co., Inc., hereinafter referred to as TLC plate). The developing solvent (chloroform/methanol (90:10, v/v)) was put into a sealed vessel, and the TLC plate was developed, and then dried at room temperature. An imaging plate (TR-2040, Fujifilm) was exposed onto the dried TLC plate for 16 hours or more. After the exposure was completed, the imaging plate was analyzed by Bioimage Analyzer (BAS2500, Fujifilm) and the [^3H] radioactivity on the part corresponding to the position of cortisol developed on the TLC plate. The inhibitory activity of a test compound against cortisone reductase was calculated according to the following equation. (inhibitory activity (%))=100×((group without test compound)−(group with test compound))/((group without test compound)−(background group))
The IC50 value was calculated by linear regression of logarithmic value of the concentration of test compound and the inhibitory activity value, using the data at 2 points showing around 50% of the inhibitory activity. […] The IC50 value of the following compounds of the present invention against cortisone reductase of human adipose cell was determined.

O=C(NC1C2CC3CC1CC(O)(C3)C2)N1C2CCC1CC(Oc1cccc(Cl)n1)C2 (centres unmarked) [Example 311]
IC50 [1]: 8.8 nM

O=C(NC1C2CC3CC1CC(O)(C3)C2)N1C2CCC1CC(Oc1cc(OCC(F)(F)F)ccn1)C2 (centres unmarked) [Example 373]
IC50 [2]: 17 nM

O=C(NC1C2CC3CC1CC(O)(C3)C2)N1C2CCC1CC(Oc1ncccc1C(F)F)C2 (centres unmarked) [Example 336]
IC50 [2]: 8.4 nM

CN(c1ccccc1)C1CC2CCC(C1)N2C(=O)NC1C2CC3CC1CC(O)(C3)C2 (stereo not drawn) [Example 316, (3-Endo)-N-[(E)-5-hydroxyadamantan-2-yl]-3-[methyl(phenyl)amino]-8-azabicyclo-[3.2.1]octane-8-carboxamide]
IC50 [1]: 18 nM

CC(=O)c1cccnc1OC1CC2CCC(C1)N2C(=O)NC1C2CC3CC1CC(O)(C3)C2 (centres unmarked) [Example 353]
IC50 [1]: 7.9 nM

O=C(NC1C2CC3CC1CC(O)(C3)C2)N1C2CCC1CC(Oc1ncccc1F)C2 (centres unmarked) [Example 400]
IC50 [1]: < 3 nM

O=C1CCc2ccc(OC3CC4CCC(C3)N4C(=O)NC3C4CC5CC3CC(O)(C5)C4)cc21 (centres unmarked) [Example 390]
IC50 [2]: 11 nM

O=C(NC1C2CC3CC1CC(O)(C3)C2)N1C2CCC1CC(Oc1ccc(F)cn1)C2 (centres unmarked) [Example 409]
IC50 [2]: < 3 nM

CC(C)c1ccnc(OC2CC3CCC(C2)N3C(=O)NC2C3CC4CC2CC(O)(C4)C3)c1 (centres unmarked) [Example 309]
IC50 [1]: 4.1 nM

COc1cccc(OC2CC3CCC(C2)N3C(=O)NC2C3CC4CC2CC(O)(C4)C3)c1Cl (centres unmarked) [compound 192]
IC50 [2]: < 3 nM

COCc1cccc(OC2CC3CCC(C2)N3C(=O)NC2C3CC4CC2CC(O)(C4)C3)c1F (centres unmarked) [Example 364]
IC50 [1]: 7.7 nM

O=C(NC1C2CC3CC1CC(O)(C3)C2)N1C2CCC1CC(Oc1ncc(C(F)F)cc1Cl)C2 (centres unmarked) [Example 342]
IC50 [1]: < 3 nM

O=C(NC1C2CC3CC1CC(O)(C3)C2)N1C2CCC1CC(Oc1ccc3c(c1)OC(F)(F)O3)C2 (centres unmarked) [Example 378]
IC50 [2]: 14 nM

Cc1cc(OC2CC3CCC(C2)N3C(=O)NC2C3CC4CC2CC(O)(C4)C3)ncc1F (centres unmarked) [Example 404]
IC50 [2]: < 3 nM

O=C(NC1C2CC3CC1CC(O)(C3)C2)N1C2CCC1CC(Oc1cc(F)c(F)c(F)c1)C2 (centres unmarked) [Example 383]
IC50 [2]: < 3 nM

O=C(NC1C2CC3CC1CC(O)(C3)C2)N1C2CCC1CC(OC1CCN(c3ccc(F)cn3)CC1)C2 (centres unmarked) [Example 427]
IC50 [2]: 15 nM

O=C(NC1C2CC3CC1CC(O)(C3)C2)N1C2CCC1CC(Oc1cccc(COCC(F)(F)F)c1)C2 (centres unmarked) [Example 367]
IC50 [1]: < 3 nM

O=C(NC1C2CC3CC1CC(O)(C3)C2)N1C2CCC1CC(Oc1cc(OC(F)F)ccn1)C2 (centres unmarked) [Example 339]
IC50 [2]: < 3 nM

O=C(NC1C2CC3CC1CC(O)(C3)C2)N1C2CCC1CC(Oc1ccc(F)cn1)C2 (centres unmarked) [Example 413]
IC50 [2]: < 3 nM

Cc1cccc(N2CCC(OC3CC4CCC(C3)N4C(=O)NC3C4CC5CC3CC(O)(C5)C4)CC2)c1 (centres unmarked) [Example 423]
IC50 [1]: < 3 nM

Cc1cccnc1OC1CC2CCC(C1)N2C(=O)NC1C2CC3CC1CC(O)(C3)C2 (centres unmarked) [Example 407]
IC50 [1]: 4.1 nM

CCc1cccnc1OC1CC2CCC(C1)N2C(=O)NC1C2CC3CC1CC(O)(C3)C2 (centres unmarked) [Example 324]
IC50 [1]: < 3 nM

Cc1ccnc(C2CC3CCC(C2)N3C(=O)NC2C3CC4CC2CC(O)(C4)C3)c1 (centres unmarked) [compound 241]
IC50 [2]: < 3 nM

O=C(NC1C2CC3CC1CC(O)(C3)C2)N1C2CCC1CC(N1Cc3ccccc3C1)C2 (centres unmarked) [Example 431]
IC50 [1]: 27 nM

O=C(N[C@H]1C2CC3CC1C[C@](O)(C3)C2)N1[C@@H]2CC[C@H]1CC(COc1ccccc1)C2 (stereo partly drawn) [Example 314, (1R,5S)-N-[(E)-5-Hydroxyadamantan-2-yl]-3-(phenoxymethyl)-8-azabicyclo[3.2.1]octane-8-carboxyamide]
IC50 [2]: 19 nM

O=C(N[C@H]1C2CC3CC1C[C@](O)(C3)C2)N1[C@@H]2CC[C@H]1C[C@H](Oc1ccccc1)C2 [compound 2]
IC50 [2]: < 1 nM

Cc1cnc(C)c(OC2CC3CCC(C2)N3C(=O)NC2C3CC4CC2CC(O)(C4)C3)n1 (centres unmarked) [Example 306]
IC50 [2]: 6.3 nM

O=C(NC1C2CC3CC1CC(O)(C3)C2)N1C2CCC1CC(Oc1cc(C(F)(F)F)ccn1)C2 (centres unmarked) [Example 307]
IC50 [1]: < 1 nM

O=C(NC1C2CC3CC1CC(O)(C3)C2)N1C2CCC1CC(Oc1ncccc1C1CC1)C2 (centres unmarked) [Example 326]
IC50 [2]: < 3 nM
